Experiments:
Aphis fabae = assay: Pest toxicity test; format: in vivo; details: 0.1% by weight; broad bean; 2 days
[1] = system: Plasmopara viticola (vine); assay: Fungicidal test against foliar disease C (foliage spray plus soil drench); format: in vivo; details: 10 days; for Amount of disease grading, disease C (Table 4): 100 ppm spray and drench
[2] = system: Tetranychus telarius (red spider mites, eggs); assay: Pest toxicity test; format: in vivo; details: 0.1% by weight; French bean; 3 days
[3] = system: Aedes aegypti (mosquito larvae); assay: Pest toxicity test; format: in vivo; details: 0.01% by weight; water; 1 day
[4] = system: Meloidogyne incognita (nematodes); assay: Pest toxicity test; format: in vivo; details: 0.01% by weight; water; 1 day
[5] = system: Venturia inaequalis (apple); assay: Fungicidal test against foliar disease G (foliage spray plus soil drench); format: in vivo; details: 50 ppm spray + 200 ppm soil drench; 21 days
Method: This Example illustrates the fungicidal properties of compounds used as active ingredients in the compositions of the invention. The compounds were tested against a wide variety of foliar fungal diseases of plants. In the test, a composition comprising an aqueous solution or suspension of the test compound was sprayed on to the foliage or uninfected plants; the soil in which the plants were growing was also drenched with the composition. The compositions used for spraying and drencing contained 100 parts per million (ppm.) of the test compound except where otherwise stated in the table of results below. After spraying and drenching, the plants were then exposed to infection with the diseases it was desired to control, along with control plants not treated with the compound. After a period of days, depending upon the particular disease, the extent of the disease was visually assessed, as a percentage of the disease established upon the control plants which had not been treated with the compound under test, according to the grading scheme below
In Table 2 below the names of the disease is given in the first column, and in the second column is given the time which elapsed between exposing the plants to infection and assessing the amount of disease.

[6] = system: Aedes aegypti (mosquito adults); assay: Pest toxicity test; format: in vivo; details: 0.01% by weight; plywood; 1 day
[7] = system: Phytophthora infestans (tomato); format: in vivo; details: 3 days; for Amount of disease grading, disease B (Table 4): 100 ppm spray and drench
[8] = system: Musca domestica (houseflies); assay: Pest toxicity test, contact test; format: in vivo; details: 0.1% by weight; milk/sugar; 2 days; flies sprayed directly
[9] = system: Plutella maculipennis (diamond back moth larvae); assay: Pest toxicity test; format: in vivo; details: in vivo
[10] = system: Piricularia oryzae (rice); format: in vivo; details: 7 days
[11] = system: Tetranychus telarius (red spider mites, adults); assay: Pest toxicity test; format: in vivo; details: 0.1% by weight; French bean; 3 days
[12] = system: Phaedon cochleariae (mustard beetles); assay: Pest toxicity test; format: in vivo; details: in vivo
Uncinula necator (vine) = assay: Fungicidal test against foliar disease D (foliage spray plus soil drench); format: in vivo; details: 10 days; for Amount of disease grading, disease D (Table 4): 100 ppm spray and drench
[13] = system: Pieris brassicae (cabbage white caterpillars); assay: Pest toxicity test; format: in vivo; details: 0.1% by weight, 2 days
Megoura viceae = assay: Pest toxicity test; format: in vivo; details: 0.1% by weight; broad bean; 2 days
[14] = system: Puccinia recondita (wheat); assay: Fungicidal test against foliar disease A (foliage spray plus soil drench); format: in vivo; details: 10 days
[15] = system: Agriolimax reticulatus (slugs); assay: Molluscicidal activity test; format: in vivo, Agriolimax reticulatus (Mull); details: pellet with 4% by weight; 6 days; 10°C
Method in brief: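 Compound was applied to a calf feeding pellet at 4% by weight active ingredient after 24 h air drying. Two replicates, each of 2 slugs starved 24 h, were kept with a moist filter paper at 10°C, and kill was assessed after 6 days.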

[16] = system: larvae of the blowfly (Lucilia serrata); assay: Insecticidal test on blowfly larvae on treated filter paper; format: in vivo; parameters: key: 5 represents inseccticidal activity equal to that of the known insecticide; 6 represents activity 10 times that of the standard; details: scale of 1 to 6; filter paper with horse serum
Erwinia carotovora = assay: Antibacterial agar test (B4); format: cell-based; details: 50 ppm; 5 days
Maize = assay: Herbicidal test, pre- and post-emergence; format: in vivo; details: 10 kg/ha; scale 0 to 3 (complete kill)
Tomato = assay: Herbicidal test, pre- and post-emergence; format: in vivo; details: 10 kg/ha; scale 0 to 3 (complete kill)
Streptomyces scabies = assay: Antibacterial agar test (B7); format: cell-based; details: 50 ppm; 5 days
[17] = system: Corynebacterium michiganense; assay: Antibacterial agar test (B2); format: cell-based; details: 50 ppm; 5 days
Method in brief: (§1)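 Compound was dissolved or suspended in acetone and mixed into nutrient agar to 50 ppm final, then dried overnight in Petri dishes. Plates were inoculated with the bacteria via multipoint inoculator and antibacterial activity was graded after 5 days.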

Wheat = assay: Herbicidal test, pre- and post-emergence; format: in vivo; details: 10 kg/ha; scale 0 to 3 (complete kill)
Lettuce = assay: Herbicidal test, pre- and post-emergence; format: in vivo; details: 10 kg/ha; scale 0 to 3 (complete kill)
Pseudomonas syringae = assay: Antibacterial agar test (B6); format: cell-based; details: 50 ppm; 5 days
Xanthomonas malvacearum = assay: Antibacterial agar test (B3); format: cell-based; details: 50 ppm; 5 days
Method in brief: as §1

[18] = system: Agrobacterium tumifaciens; assay: Antibacterial agar test (B1); format: cell-based; details: 50 ppm; 5 days
Xanthomonas oryzae = format: cell-based; details: 50 ppm; 5 days
[19] = 50 ppm spray + 200 ppm soil drench

Compound | Mortality grading (kill) (Aphis fabae) | Mortality grading (kill) [2] | Mortality grading (kill) [3] | Mortality grading (kill) [4] | Mortality grading (kill) [6] | Mortality grading (kill), contact test [8] | Mortality grading (kill) [9] | Mortality grading (kill) [11] | Mortality grading (kill) [12] | Mortality grading (kill) [13] | Mortality grading (kill) (Megoura viceae) | Amount of disease grading, disease C (Table 4) [1] | % Kill of slugs [15] [%] | Activity relative to lindane [16] | Amount of disease grading, disease B (Table 4) [7] | Amount of disease grading, disease D (Table 4) (Uncinula necator (vine)) | also measured
Fc1nc(F)c(Cl)c(Nc2c(Cl)cccc2Cl)c1Cl [Compound 3, 3,5-Dichloro-2,6-difluoro-4(2,6-dichloroanilino)pyridine] | 0 (O represents less than 30% kill) | 2 (2 represents 60 - 90% kill) | 0 (O represents less than 30% kill) | 2 (2 represents 60 - 90% kill) | 0 (O represents less than 30% kill) | 0 (O represents less than 30% kill) | 0 (key: O represents less than 30% kill; 1 represents 30 - 49% kill; 2 represents 60 - 90% kill; 3 represents over 90% kill; C indicates a chemosterilant effect.; A indicates an antifeeding effect.) | 0 (O represents less than 30% kill) | 0 (key: O represents less than 30% kill; 1 represents 30 - 49% kill; 2 represents 60 - 90% kill; 3 represents over 90% kill; C indicates a chemosterilant effect.; A indicates an antifeeding effect.) | 0 (O represents less than 30% kill) | 0 (O represents less than 30% kill) | – | – | – | – | – | Amount of disease grading, disease C [1, 19]: 2 (6 to 25); Amount of disease grading, disease G [5]: 0 (61 to 100); Amount of disease grading, disease B [7, 19]: 0 (61 to 100); Amount of disease grading, disease E [10, 19]: 0 (61 to 100); Amount of disease grading, disease D (Uncinula necator (vine); [19]): 3 (0 to 5); Amount of disease grading, disease A [14, 19]: 0 (61 to 100)
O=[N+]([O-])c1cc([N+](=O)[O-])c2ccccc2c1Nc1c(Cl)c(F)nc(F)c1Cl [Compound 25, 3,5-Dichloro-2,6-difluoro-4(2,4-dinitro-1-naphthylamino) pyridine] | 0 (O represents less than 30% kill) | 2 (2 represents 60 - 90% kill) | 3 (3 represents over 90% kill) | 3 (3 represents over 90% kill) | 0 (O represents less than 30% kill) | 0 (O represents less than 30% kill) | 0 (key: O represents less than 30% kill; 1 represents 30 - 49% kill; 2 represents 60 - 90% kill; 3 represents over 90% kill; C indicates a chemosterilant effect.; A indicates an antifeeding effect.) | 0 (O represents less than 30% kill) | 2 (key: O represents less than 30% kill; 1 represents 30 - 49% kill; 2 represents 60 - 90% kill; 3 represents over 90% kill; C indicates a chemosterilant effect.; A indicates an antifeeding effect.) | 3 (3 represents over 90% kill) | 0 (O represents less than 30% kill) | 3 (0 to 5) | 50 | 5 | 3 (0 to 5) | 3 (0 to 5) | Amount of disease grading, disease E (Table 4) ([10]; 100 ppm spray and drench): 0 (61 to 100); Amount of disease grading, disease A (Table 4) ([14]; 100 ppm spray and drench): 2 (6 to 25)
N#Cc1cc([N+](=O)[O-])c(Nc2c(Cl)c(F)nc(F)c2Cl)c([N+](=O)[O-])c1 [Compound 34, 4(4-Cyano-2,6-dinitroanilino)-3,5-dichloro-2,6-difluoropyridine] | 3 (3 represents over 90% kill) | 3 (3 represents over 90% kill) | 3 (3 represents over 90% kill) | – | 0 (O represents less than 30% kill) | – | 2 (key: O represents less than 30% kill; 1 represents 30 - 49% kill; 2 represents 60 - 90% kill; 3 represents over 90% kill; C indicates a chemosterilant effect.; A indicates an antifeeding effect.) | 3 (3 represents over 90% kill) | 0 (key: O represents less than 30% kill; 1 represents 30 - 49% kill; 2 represents 60 - 90% kill; 3 represents over 90% kill; C indicates a chemosterilant effect.; A indicates an antifeeding effect.) | 0 (O represents less than 30% kill) | 0 (O represents less than 30% kill) | 3 (0 to 5) | 100 | 5 | 3 (0 to 5) | 3 (0 to 5) | Antibacterial activity grading B4 (Erwinia carotovora): 0 (61 to 100); Damage to plants, post-emergence (Maize): 0; Damage to plants, pre-emergence (Maize): 3; Damage to plants, post-emergence (Tomato): 0; Damage to plants, pre-emergence (Tomato): 2; Antibacterial activity grading B7 (Streptomyces scabies): 3 (0 to 5); Antibacterial activity grading B2 [17]: 3 (0 to 5); Damage to plants, post-emergence (Wheat): 0; Damage to plants, pre-emergence (Wheat): 3; Damage to plants, post-emergence (Lettuce): 0; Damage to plants, pre-emergence (Lettuce): 3; Antibacterial activity grading B6 (Pseudomonas syringae): 3 (0 to 5); Antibacterial activity grading B3 (Xanthomonas malvacearum): 2 (6 to 25); Antibacterial activity grading B1 [18]: 0 (61 to 100); Antibacterial activity grading B5 (Xanthomonas oryzae): 2 (6 to 25)
